Three compounds from patent US7495098B2, “Extraction of alkaloids from opium” (Mallinckrodt Inc, priority 2004, dated 2009) can be followed below.

The nature of data set [1]: Stability of alkaloids in the acid digest of opium suspension at pH 3.0, room temperature. Conditions: pH 3.0, up to 96 hours.
Protocol: The purpose of Experiment I was to obtain side-by-side data of the performance of hydrochloric acid in relationship to acetic acid. The acid digestion occurred at room temperature for 96 hours. The opium suspensions were sampled at intervals, and assays were performed to test the rate of extraction of alkaloids from the opium.
The opium was dispersed by adding one liter of deionized water and 238 grams of opium to the blender. The blender was processed on “puree.” This is at 14,046 RPM, or a Reynold's number of 725,791 for two (2) minutes. The slurry was divided between two Erlenmeyer flasks. A tar ball remained in the bottom of the blender. The next step was to add 100 milliliters of water. The blender was then set to “liquefy.” This is at 20,495 RPM, or a Reynold's number of 991,216 for thirty (30) seconds. There was not an even distribution between the two Erlenmeyer flasks. This was followed by returning all of the slurry to the blender and processed on “liquefy” for an additional ten (10) seconds. The slurry was then split between the two Erlenmeyer flasks. The slurry was very frothy in appearance. The pH of each Erlenmeyer flask was adjusted to 3.0. In one Erlenmeyer flask, the pH was adjusted with hydrochloric acid (37%), and in the other Erlemneyer flask, the pH was adjusted with glacial acetic acid. […]
Data set [2] is described as follows: Alkaloid partition coefficients, pH 9.0 (acetic acid opium extract and organic solvent, equal volumes). The protocol: Some experiments were conducted with solvents to investigate liquid extraction to purify or separate the alkaloids. In these experiments, the aliquot of solvent layer was allowed to evaporate to dryness prior to diluting to volume with the dilute acetic acid. The aliquots were evaporated in this manner to eliminate the effect of solvents on retention time and the peak shape of the chromatography assays. Partition coefficients were obtained by dividing the concentration of the alkaloid in the organic layer by the concentration of the alkaloid in the aqueous layer. The disappearance of the rag layer following liquid extraction was done by filing a mixing container, e.g., cylinder, with the aqueous solution and the solvent. The mixing container, e.g., cylinder is then sealed with a stopper and shook for a predetermined time interval at a certain rate and then recording the interface levels over time.
The phases were allowed to separate, and aliquots of each layer were taken.

Data set [3] can be described thus: Alkaloid partition coefficients, pH 3.0 (mixing cylinder liquid extraction of opium filtrate, HPLC assay of layers). In kind it is physicochemical. The text has this:
The next part of the experiment was to test various solvents to identify possible candidates for liquid extraction so that the alkaloids can be separated and purified. There was fifty (50) milliliters of filtrate and fifty (50) milliliters of solvent were charged to one hundred (100) milliliter mixing cylinders. The one hundred (100) milliliter cylinders were shaken for thirty (30) seconds at approximately one (1) shake per second. The one hundred (100) milliliter mixing cylinders were allowed to settle, and the locations of the bottom and top of the rag layer were recorded over time. The results for one trial of the hydrochloric acid extraction of opium is presented in Table 2, and the results of one trial of acetic acid extraction is presented in Table 3. The four solvents used were toluene, hexane, n-butanol (n-BuOH), and isopentyl alcohol (i-C5OH).
After the mixing cylinder studies were completed, the layers were sampled for High Pressure Liquid Chromatography (HPLC) assay and partition coefficients were obtained for each of the systems.

The mark [4] stands for this setting: system BuOH/HCl (n-butanol, hydrochloric acid extract).
Where [5] appears, read: system BuOH/HOAc (n-butanol, acetic acid extract).
Where [6] appears, read: system CHCL3/HCl (chloroform, hydrochloric acid extract).
[7] abbreviates: system CHCL3/HOAc (chloroform, acetic acid extract).
The mark [8] stands for this setting: system I-pentyl/HCL (isopentyl alcohol, hydrochloric acid extract).
The mark [9] stands for this setting: system I-pentyl/HOAc (isopentyl alcohol, acetic acid extract).

Turning to `COc1ccc2c3c1O[C@H]1[C@@H](O)C=C[C@H]4[C@@H](C2)N(C)CC[C@@]341` [Codeine, codeine], the “Stability (loss of alkaloid) in solution” value in data set [1] is “does not appear to be any significant loss”. The Alkaloid partition coefficient in data set [2] (system BuOH/HOAc) came to 18.9714; in data set [2] (system Hexane/HOAc), 0.0735; in data set [2] (system I-pentyl/HOAc) it was 19.6646; in data set [2] (system Toluene/HOAc), 5.3686. Besides, the “Alkaloid partition coefficient (concentration in organic layer / concentration in aqueous layer)” value in data set [3] (setting [4]) was 0.1374; in data set [3] (setting [5]) it was 0.2277; in data set [3] (setting [6]), 0.0074; in data set [3] (setting [7]), 0.0341; in data set [3] (setting [8]) it was 0.0181; in data set [3] (setting [9]), 0.0319.

For `CN1CC[C@]23c4c5ccc(O)c4O[C@H]2[C@@H](O)C=C[C@H]3[C@H]1C5` [Morphine, morphine], where the note is “after 24 hours, extraction with butanol at pH 9.0 (FIG. 3)”, the “Portion of morphine originally present that decomposed” value is given as “about half”. Besides, where the note is “alkaline extraction with n-butanol and i-pentyl alcohol, pH 9.0, room temperature”, the “Decomposition during the extraction step” value is “decomposed”.

In the case of `COC1=CC=C2[C@H]3Cc4ccc(OC)c5c4[C@@]2(CCN3C)[C@H]1O5` [Thebaine, thebaine], the “Stability (loss of alkaloid) in solution” value in data set [1] is “does not appear to be any significant loss”. Further, the Alkaloid partition coefficient in data set [2] (system BuOH/HOAc) is 34.7434; in data set [2] (system Hexane/HOAc) it was 1.8589; in data set [2] (system I-pentyl/HOAc), 55.5035; in data set [2] (system Toluene/HOAc) it was 154.6710. Moreover, the “Alkaloid partition coefficient (concentration in organic layer / concentration in aqueous layer)” value in data set [3] (setting [4]) turned out to be 0.4312; in data set [3] (setting [5]), 0.6351; in data set [3] (setting [6]), 0.5363; in data set [3] (setting [7]), 1.5273; in data set [3] (setting [8]) it was 0.1053; in data set [3] (setting [9]) it was 0.1548.
